In brackets after ≈: the same amount, converted by molar mass. Where a SMILES comes first, the peptide text is derived from it.
Assays:
Assay in all cases: microbe, parasite or virus in culture
E. coli LEC001 = assay type: cell-based, Escherichia coli; conditions: LEC001, 20 h; for MIC: Escherichia coli, read-out: Modal MIC
Procedure: (§1) Antimicrobial activity was evaluated against a panel of 18 pathogens consisting of eight Gram-negative strains (E. coli NCTC 12923, E. coli LEC001, Pseudomonas aeruginosa PAO1, P. aeruginosa NCTC 13437, Acinetobacter baumannii ATCC 17978, A. baumannii AYE, Klebsiella pneumoniae M6, K. pneumoniae NCTC 13368), four Gram-positive strains (Staphylococcus aureus ATCC 9144, S. aureus NCTC 13616, S. aureus USA300, S. aureus 1199B) and six fungi (Candida auris TDG 1912, C. albicans NCPF 8018, C. krusei NCPF 3876, C. tropicalis NCPF 8760, and C. parapsilosis NCPF 3209). Pathogens were grown in noncation adjusted Mueller Hinton broth (MHB, for bacteria) or Roswell Park Memorial Institute (RPMI 1640) + 2% glucose (for fungi) at 37 °C with 180 rpm shaking and maintained on solid media (tryptic soy agar for bacteria and Sabouraud dextrose agar for fungi). For an antibiogram, see Suppl.
(§2) The 46 peptides were serially diluted (128 to 2 μg/mL) in media down polypropylene 96-well plates. Bacteria or fungi, diluted from an overnight culture to an OD600 of 0.01, were added to the serially diluted peptides at a 1:1 ratio resulting in a starting cell density of ∼5 × 10^5 CFU/mL. Plates were incubated at 37 °C for 20 h, and the optical density was determined spectrophotometrically at 600 nm. Minimum inhibition concentrations (MICs) were determined from a minimum of three biological repeats and are reported in μg/mL as well as μM. […] The MIC50 or MIC90 is defined as the lowest peptide concentration that results in 50% or 90% growth inhibition over a 20 h treatment period, respectively.

E. coli NCTC 12923 = assay type: cell-based, Escherichia coli; conditions: for Modal MIC: NCTC 12923, 20 h; for MIC: Escherichia coli, NCTC12923, 20 h, read-out: Modal MIC
Procedure: as §1, §2

A. baumannii ATCC 17978 = assay type: cell-based, Acinetobacter baumannii; conditions: for Modal MIC: ATCC 17978, 20 h; for MIC: Acinetobacter baumannii, ATCC17978, 20 h, read-out: Modal MIC
Procedure: as §1, §2

A. baumannii AYE = assay type: cell-based, Acinetobacter baumannii; conditions: for MIC: Acinetobacter baumannii, read-out: Modal MIC
Procedure: as §1, §2

S. aureus (MRSA) 1199B = assay type: cell-based, Staphylococcus aureus; conditions: for Modal MIC: S. aureus (MRSA) 1199B (R); for MIC: Staphylococcus aureus, MRSA, read-out: Modal MIC
Procedure: as §1, §2

C. auris TDG 1912 = assay type: cell-based, Candida auris; conditions: TDG 1912, 20 h
Procedure: as §1, §2

C. albicans NCPF 3281 = assay type: cell-based; conditions: NCPF 3281, 20 h
Procedure: as §1, §2

C. glabrata NCPF 8018 = assay type: cell-based; conditions: NCPF 8018, 20 h
Procedure: as §1, §2

C. krusei NCPF 3876 = assay type: cell-based; conditions: NCPF 3876, 20 h
Procedure: as §1, §2

[1] = tested on: C. parapsilosis NCPF 3209; assay type: cell-based; conditions: NCPF 3209, 20 h
Procedure: as §1, §2

C. tropicalis NCPF 8760 = assay type: cell-based; conditions: NCPF 8760, 20 h
Procedure: as §1, §2

P. aeruginosa NCTC 13437 = assay type: cell-based, Pseudomonas aeruginosa; conditions: for MIC: Pseudomonas aeruginosa, NCTC13437, 20 h, read-out: Modal MIC
Procedure: as §1, §2

P. aeruginosa PAO1 = assay type: cell-based, Pseudomonas aeruginosa; conditions: PAO1, 20 h; for MIC: Pseudomonas aeruginosa, read-out: Modal MIC
Procedure: as §1, §2

K. pneumoniae M6 = assay type: cell-based, Klebsiella pneumoniae; conditions: M6, 20 h; for MIC: Klebsiella pneumoniae, read-out: Modal MIC
Procedure: as §1, §2

K. pneumoniae NCTC 13368 = assay type: cell-based, Klebsiella pneumoniae; conditions: for MIC: Klebsiella pneumoniae, NCTC13368, 20 h, read-out: Modal MIC
Procedure: as §1, §2

[2] = tested on: S. aureus (MRSA) NCTC 13616; assay type: cell-based, Staphylococcus aureus; conditions: for MIC: Staphylococcus aureus, read-out: Modal MIC
Procedure: as §1, §2

S. aureus (MRSA) USA300 = assay type: cell-based, Staphylococcus aureus
Procedure: as §1, §2

[3] = tested on: S. aureus (MSSA) ATCC 9144; assay type: cell-based, Staphylococcus aureus; conditions: for MIC: Staphylococcus aureus, 20 h, read-out: Modal MIC
Procedure: as §1, §2

Structure (SMILES)	Modal MIC (E. coli LEC001) [µM]	Modal MIC (E. coli NCTC 12923) [µM]	Modal MIC (A. baumannii ATCC 17978) [µM]	Modal MIC (A. baumannii AYE; AYE, 20 h) [µM]	Modal MIC (S. aureus (MRSA) 1199B; shown in µM) [µM]	Modal MIC50 (C. auris TDG 1912) [µM]	Modal MIC90 (C. auris TDG 1912) [µM]	Modal MIC50 (C. albicans NCPF 3281) [µM]	Modal MIC90 (C. albicans NCPF 3281) [µM]	Modal MIC50 (C. glabrata NCPF 8018) [µM]	Modal MIC90 (C. glabrata NCPF 8018) [µM]	Modal MIC50 (C. krusei NCPF 3876) [µM]	Modal MIC90 (C. krusei NCPF 3876) [µM]	Modal MIC50 [1] [µM]	Modal MIC90 [1] [µM]	Modal MIC50 (C. tropicalis NCPF 8760) [µM]	Modal MIC90 (C. tropicalis NCPF 8760) [µM]	MIC (E. coli LEC001) [µg/mL]	MIC (E. coli NCTC 12923) [µg/mL]	MIC (P. aeruginosa NCTC 13437) [µg/mL]	further results
CC[C@H](C)[C@H](NC(=O)[C@H](CCCCN)NC(=O)[C@H](CC(C)C)NC(=O)CNC(=O)[C@H](C)NC(=O)[C@H](CCCCN)NC(=O)[C@H](CC(C)C)NC(=O)[C@H](C)NC(=O)[C@H](CCCCN)NC(=O)CNC(=O)[C@H](CC(C)C)NC(=O)[C@@H](N)Cc1ccccc1)C(=O)NCC(=O)N[C@@H](CO)C(=O)N[C@@H](Cc1c[nH]cn1)C(=O)N[C@@H](CC(C)C)C(N)=O [CPF-P2a] (H-FLGKALKAGLKIGSHL-NH2)	37.1	18.6	18.6	37.1	> 74	> 74	> 74	> 74	> 74	> 74	> 74	> 74	> 74	> 74	> 74	> 74	> 74	–	–	–	–
CC(C)(O/N=C(\C(=O)N[C@@H]1C(=O)N2C(C(=O)[O-])=C(C[n+]3ccccc3)CS[C@H]12)c1csc(N)n1)C(=O)O [Ceftazidime, reference compound]	–	–	–	–	–	–	–	–	–	–	–	–	–	–	–	–	–	128 (≈ 234 µM)	≤ 0.125	> 128	MIC (P. aeruginosa PAO1): 1 µg/mL (≈ 1.83 µM); MIC (A. baumannii ATCC 17978): < 0.5 µg/mL; MIC (A. baumannii AYE; 20 h): > 128 µg/mL; MIC (K. pneumoniae M6): < 0.5 µg/mL; MIC (K. pneumoniae NCTC 13368): 512 µg/mL (≈ 937 µM); MIC (S. aureus (MRSA) 1199B; 20 h): 8 µg/mL (≈ 14.6 µM); MIC ([2]; 20 h): 128 µg/mL (≈ 234 µM); MIC (S. aureus (MRSA) USA300; Staphylococcus aureus, 20 h, read-out: Modal MIC): 32 µg/mL (≈ 58.5 µM); MIC [3]: 16 µg/mL (≈ 29.3 µM)
CC[C@H](C)[C@H](NC(=O)[C@@H](N)CCCCN)C(=O)N[C@@H](C)C(=O)N[C@@H](CCCCN)C(=O)N[C@H](C(=O)N[C@@H](C)C(=O)N[C@@H](CC(C)C)C(=O)N[C@@H](CCCCN)C(=O)N[C@@H](C)C(=O)N[C@@H](CC(C)C)C(N)=O)C(C)C [DRAMP02273a] (H-KIAKVALKAL-NH2)	–	–	–	–	> 117.5	> 117.5	> 117.5	> 117.5	> 117.5	> 117.5	> 117.5	> 117.5	> 117.5	> 117.5	> 117.5	> 117.5	> 117.5	–	–	–	Modal MIC (P. aeruginosa NCTC 13437; P. aeruginosa NCTC 13437 (R), MHB, 37 °C, 20 h, OD600, min. three biological repeats): > 128 µg/mL; Modal MIC (P. aeruginosa NCTC 13437; P. aeruginosa NCTC 13437 (R), shown in µM): > 117.5 µM; Modal MIC (A. baumannii AYE; A. baumannii AYE (R), MHB, 37 °C, 20 h, OD600, min. three biological repeats): > 128 µg/mL; Modal MIC (A. baumannii AYE; A. baumannii AYE (R), shown in µM): > 117.5 µM; Modal MIC (K. pneumoniae NCTC 13368; K. pneumoniae NCTC 13368 (R), MHB, 37 °C, 20 h, OD600, min. three biological repeats): > 128 µg/mL; Modal MIC (K. pneumoniae NCTC 13368; K. pneumoniae NCTC 13368 (R), shown in µM): > 117.5 µM; Modal MIC (S. aureus (MRSA) 1199B; MHB, 37 °C, 20 h, OD600, min. three biological repeats): > 128 µg/mL; Modal MIC ([2]; S. aureus (MRSA) NCTC 13616 (R), MHB, 37 °C, 20 h, OD600, min. three biological repeats): > 128 µg/mL; Modal MIC ([2]; S. aureus (MRSA) NCTC 13616 (R), shown in µM): > 117.5 µM; Modal MIC (S. aureus (MRSA) USA300; S. aureus (MRSA) USA300 (R), MHB, 37 °C, 20 h, OD600, min. three biological repeats): > 128 µg/mL; Modal MIC (S. aureus (MRSA) USA300; S. aureus (MRSA) USA300 (R), shown in µM): > 117.5 µM
NC[C@H]1O[C@H](O[C@H]2[C@H](O)[C@@H](O[C@H]3O[C@H](CO)[C@@H](O)[C@H](N)[C@H]3O)[C@H](N)C[C@@H]2N)[C@H](N)C[C@@H]1O [Tobramycin, reference compound]	–	–	–	–	–	–	–	–	–	–	–	–	–	–	–	–	–	8 (≈ 17.1 µM)	16 (≈ 34.2 µM)	64 (≈ 137 µM)	MIC (P. aeruginosa PAO1): 2 µg/mL (≈ 4.28 µM); MIC (A. baumannii ATCC 17978): 4 µg/mL (≈ 8.56 µM); MIC (A. baumannii AYE; 20 h): 64 µg/mL (≈ 137 µM); MIC (K. pneumoniae M6): 8 µg/mL (≈ 17.1 µM); MIC (K. pneumoniae NCTC 13368): 64 µg/mL (≈ 137 µM); MIC (S. aureus (MRSA) 1199B; 20 h): 0.25 µg/mL (≈ 0.535 µM); MIC ([2]; 20 h): 0.5 µg/mL (≈ 1.07 µM); MIC [3]: 0.25 to 0.5 µg/mL (≈ 0.535 to 1.07 µM)
CC[C@H](C)[C@H](NC(=O)[C@H](CCCCN)NC(=O)[C@H](CO)NC(=O)[C@H](C)NC(=O)[C@H](Cc1c[nH]c2ccccc12)NC(=O)CN)C(=O)NCC(=O)N[C@@H](CCC(N)=O)C(=O)N[C@H](C(=O)N[C@@H](CC(C)C)C(=O)NCC(=O)N[C@@H](CCCCN)C(=O)N[C@H](C(=O)N[C@@H](C)C(=O)N[C@@H](CCCCN)C(=O)N[C@H](C(=O)NCC(=O)N[C@@H](CC(C)C)C(=O)N[C@@H](CCCCN)C(=O)N[C@@H](CCC(=O)O)C(=O)N[C@@H](CC(C)C)C(=O)N[C@H](C(=O)N[C@@H](CCC(N)=O)C(=O)N1CCC[C@H]1C(=O)N[C@@H](CCCCN)C(=O)O)[C@@H](C)CC)C(C)C)[C@@H](C)CC)[C@@H](C)O [XPF] (H-GWASKIGQTLGKIAKVGLKELIQPK-OH)	1.5	1.5	1.5	1.5	–	–	–	> 46.5	> 46.5	> 46.5	> 46.5	> 46.5	> 46.5	> 46.5	> 46.5	11.6	11.6	–	–	–	Modal MIC (P. aeruginosa NCTC 13437; NCTC 13437, 20 h): 46.5 µM; Modal MIC (P. aeruginosa PAO1): 46.5 µM; Modal MIC (K. pneumoniae M6): 23.2 µM; Modal MIC (K. pneumoniae NCTC 13368; NCTC 13368, 20 h): 11.6 µM; Modal MIC ([2]; NCTC 13616, 20 h): 46.5 µM; Modal MIC (S. aureus (MRSA) USA300; USA300, 20 h): 46.5 µM; Modal MIC ([3]; ATCC 9144, 20 h): 11.6 µM

From article PMC11191095, “QSAR Reveals Decreased Lipophilicity of Polar Residues Determines the Selectivity of Antimicrobial Peptide Activity” (ACS Omega, 2024)
